This note sets out measurements from patent US10988523B2, “Modified lipidated Relaxin B chain peptides and their therapeutic use” (Sanofi, priority 2018, dated 2021).

Broadly, the Emax is the maximal effect, on the per cent scale that the assay sets. By EC50 is commonly meant the concentration giving half of the maximal effect.

Molecules are shown by their SMILES. *1 amine or outer side, *2 acyl side, *3 side chain or, on linkers, in order; H or OH if unused. Where a SMILES comes first, the peptide text is derived from it. Side-chain parts run from the residue outwards. [ ]: non-standard residue; d: D form. The star is where a group is joined. PEG12 = NCCOCCOCCOCCOCCOCCOCCOCCOCCOCCOCCOCCOCCC(=O)O; Arachidoyl = CCCCCCCCCCCCCCCCCCCC(=O)*; γGlu = O=C(O)[C@H](CCC(=O)[*:2])N[*:1]; 1Nal = N[C@@H](Cc1cccc2ccccc12)C(=O)O; Stearoyl = CCCCCCCCCCCCCCCCCC(=O)*; Palmitoyl = CCCCCCCCCCCCCCCC(=O)*; αMeK = C[C@](N)(CCCCN)C(=O)O; Nle = CCCC[C@H](N)C(=O)O; AEEA = NCCOCCOCC(=O)O; Aib = CC(C)(N)C(=O)O

The target in this test is T1, RXFP1 (Homo sapiens, UniProt Q9HBX9).
T1 construct: OVCAR5 cells expressing endogenous RXFP1; endogenous in cells; host or cells: OVCAR5 cells
T1 sequence (Q9HBX9 1-757): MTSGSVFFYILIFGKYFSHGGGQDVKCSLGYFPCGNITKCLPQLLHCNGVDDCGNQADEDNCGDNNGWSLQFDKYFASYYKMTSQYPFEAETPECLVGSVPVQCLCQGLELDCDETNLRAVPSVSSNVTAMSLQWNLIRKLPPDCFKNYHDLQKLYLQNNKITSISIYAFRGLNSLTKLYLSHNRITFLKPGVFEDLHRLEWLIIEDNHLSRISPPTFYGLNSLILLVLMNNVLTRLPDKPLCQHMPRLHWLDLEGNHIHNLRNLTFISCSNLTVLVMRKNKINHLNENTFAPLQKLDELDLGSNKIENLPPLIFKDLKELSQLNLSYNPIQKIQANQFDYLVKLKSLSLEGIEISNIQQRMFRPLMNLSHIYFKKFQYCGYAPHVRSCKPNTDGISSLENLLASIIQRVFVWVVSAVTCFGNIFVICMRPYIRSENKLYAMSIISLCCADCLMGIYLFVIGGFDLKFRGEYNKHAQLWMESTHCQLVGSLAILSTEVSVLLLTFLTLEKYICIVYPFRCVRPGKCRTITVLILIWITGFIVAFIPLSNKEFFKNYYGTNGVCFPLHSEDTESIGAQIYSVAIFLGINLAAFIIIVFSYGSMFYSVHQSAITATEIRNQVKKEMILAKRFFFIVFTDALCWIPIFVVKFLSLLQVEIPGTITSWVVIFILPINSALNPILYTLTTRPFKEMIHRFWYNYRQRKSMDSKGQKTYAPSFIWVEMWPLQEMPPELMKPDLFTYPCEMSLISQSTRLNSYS
Description: OVCAR5 cAMP assay (HTRF), RXFP1 agonist activity. The format is cell-based. As to conditions: for Emax: OVCAR-5, maximal cAMP relative to H2-relaxin maximum (100%), read-out: EMax, OVCAR 5 cells (cAMP); for EC50: OVCAR5 cells, cAMP HTRF, read-out: EC50 (nM), OVCAR 5 cells (cAMP). An outline of the steps:
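OVCAR5 cells (endogenous RXFP1) pretreated 40 min at 37° C with 1 mM IBMX, then exposed to peptides in serum-free medium for 30 min at 37° C. Lysate cAMP read by HTRF; EC50 from variable-slope sigmoidal fit; Emax as % of H2-relaxin maximal cAMP in same run.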

In the case of `CCCCCCCCCCCCCCCC(=O)N[C@@H](CCC(=O)N[C@@H](CCC(=O)N[C@@H](CCC(=O)NCCCC[C@H](NC(=O)CCOCCOCCOCCOCCOCCOCCOCCOCCOCCOCCOCCOCCNC(=O)[C@H](CCCCN)NC(=O)[C@H](CCCNC(=N)N)NC(=O)C(C)(C)NC(=O)[C@H](CO)NC(=O)[C@H](Cc1cccc2ccccc12)NC(=O)[C@@H](NC(=O)[C@H](CO)NC(=O)[C@H](CCCC)NC(=O)CNC(=O)[C@H](CCC(=O)O)NC(=O)C(C)(C)NC(=O)C(C)(C)NC(=O)[C@@H](NC(=O)[C@H](CCCCNC(C)=O)NC(=O)[C@H](C)NC(=O)[C@H](CCCNC(=N)N)NC(=O)[C@@H](NC(=O)[C@H](CCCCN)NC(=O)[C@H](CCC(=O)O)NC(=O)[C@H](CCCNC(=N)N)NC(=O)CNC(=O)[C@H](CCC(=O)O)NC(=O)[C@H](CC(C)C)NC(C)=O)C(C)C)[C@@H](C)CC)[C@@H](C)O)C(N)=O)C(=O)O)C(=O)O)C(=O)O` [compound 29] (Ac-LEGREKVRAK(Ac)I[Aib][Aib]EG[Nle]ST[1Nal]S[Aib]RK[PEG12]K([γGlu-γGlu-γGlu-Palmitoyl])-NH2), the Emax turned out to be 78%. As to `CCCCCCCCCCCCCCCCCC(=O)N[C@@H](CCC(=O)N[C@@H](CCC(=O)N[C@@H](CCC(=O)N[C@@H](CCC(=O)NCCOCCOCC(=O)NCCOCCOCC(=O)NCCOCCOCC(=O)NCCCC[C@H](NC(=O)[C@H](CCCCNC(C)=O)NC(=O)[C@H](CCCCN)NC(=O)[C@H](CCCNC(=N)N)NC(=O)C(C)(C)NC(=O)[C@H](CO)NC(=O)[C@H](Cc1c[nH]c2ccccc12)NC(=O)[C@@H](NC(=O)[C@H](CO)NC(=O)[C@H](CCCC)NC(=O)CNC(=O)[C@H](CCC(=O)O)NC(=O)C(C)(C)NC(=O)C(C)(C)NC(=O)[C@@H](NC(=O)[C@H](CCCCNC(C)=O)NC(=O)[C@H](C)NC(=O)[C@H](CCCNC(=N)N)NC(=O)[C@@H](NC(=O)[C@H](CCCCN)NC(=O)[C@H](CCC(=O)O)NC(=O)[C@H](CCCNC(=N)N)NC(=O)CNC(=O)[C@H](CCC(=O)O)NC(=O)[C@H](CC(C)C)NC(C)=O)C(C)C)[C@@H](C)CC)[C@@H](C)O)C(N)=O)C(=O)O)C(=O)O)C(=O)O)C(=O)O` [compound 128] (Ac-LEGREKVRAK(Ac)I[Aib][Aib]EG[Nle]STWS[Aib]RKK(Ac)K([AEEA-AEEA-AEEA-γGlu-γGlu-γGlu-γGlu-Stearoyl])-NH2), the EC50 was 0.22 nM and the Emax worked out at 91%.

On to `CCCCCCCCCCCCCCCCCCCC(=O)N[C@@H](CCC(=O)N[C@@H](CCC(=O)N[C@@H](CCC(=O)NCCOCCOCC(=O)NCCOCCOCC(=O)NCCOCCOCC(=O)NCCCC[C@H](NC(=O)[C@H](CCCCNC(C)=O)NC(=O)[C@H](CCCCN)NC(=O)[C@H](CCCNC(=N)N)NC(=O)C(C)(C)NC(=O)[C@H](CO)NC(=O)[C@H](Cc1c[nH]c2ccccc12)NC(=O)[C@@H](NC(=O)[C@H](CO)NC(=O)[C@H](CCCC)NC(=O)CNC(=O)[C@H](CCC(=O)O)NC(=O)C(C)(C)NC(=O)C(C)(C)NC(=O)[C@@H](NC(=O)[C@H](CCCCNC(C)=O)NC(=O)[C@H](C)NC(=O)[C@H](CCCNC(=N)N)NC(=O)[C@@H](NC(=O)[C@H](CCCCN)NC(=O)[C@H](CCC(=O)O)NC(=O)[C@H](CCCNC(=N)N)NC(=O)CNC(=O)[C@H](CCC(=O)O)NC(=O)[C@H](CC(C)C)NC(C)=O)C(C)C)[C@@H](C)CC)[C@@H](C)O)C(N)=O)C(=O)O)C(=O)O)C(=O)O` [compound 171] (Ac-LEGREKVRAK(Ac)I[Aib][Aib]EG[Nle]STWS[Aib]RKK(Ac)K([AEEA-AEEA-AEEA-γGlu-γGlu-γGlu-Arachidoyl])-NH2), for which the EC50 is 0.18 nM and the Emax is 83%.

For the compound `CCCCCCCCCCCCCCCCCC(=O)N[C@@H](CCC(=O)N[C@@H](CCC(=O)N[C@@H](CCC(=O)NCCCC[C@H](NC(=O)CCOCCOCCOCCOCCOCCOCCOCCOCCOCCOCCOCCOCCNC(=O)[C@H](CCCCN)NC(=O)[C@H](CCCCN)NC(=O)[C@H](CCCNC(=N)N)NC(=O)C(C)(C)NC(=O)[C@H](CO)NC(=O)[C@H](Cc1c[nH]c2ccccc12)NC(=O)[C@@H](NC(=O)[C@H](CO)NC(=O)[C@H](CCCC)NC(=O)CNC(=O)[C@H](CCC(=O)O)NC(=O)C(C)(C)NC(=O)C(C)(C)NC(=O)[C@@H](NC(=O)[C@H](CCC(N)=O)NC(=O)[C@H](C)NC(=O)[C@H](CCCNC(=N)N)NC(=O)[C@@H](NC(=O)[C@H](CCCCN)NC(=O)[C@H](CCC(=O)O)NC(=O)[C@H](CCCNC(=N)N)NC(=O)CNC(=O)[C@H](CCC(=O)O)NC(=O)[C@H](CC(C)C)NC(C)=O)C(C)C)[C@@H](C)CC)[C@@H](C)O)C(N)=O)C(=O)O)C(=O)O)C(=O)O` [compound 31] (Ac-LEGREKVRAQI[Aib][Aib]EG[Nle]STWS[Aib]RKK[PEG12]K([γGlu-γGlu-γGlu-Stearoyl])-NH2), the Emax came out at 86%. With `CCCCCCCCCCCCCCCC(=O)N[C@@H](CCC(=O)NCCCC[C@H](NC(=O)CC[C@H](NC(=O)CC[C@H](NC(=O)CC[C@H](NC(=O)COCCOCCNC(=O)COCCOCCNC(=O)COCCOCCNC(=O)COCCOCCNC(=O)[C@H](CCCCNC(C)=O)NC(=O)[C@H](C)NC(=O)[C@H](C)NC(=O)[C@](C)(CCCCN)NC(=O)[C@H](CO)NC(=O)[C@H](Cc1ccccc1)NC(=O)[C@@H](NC(=O)[C@H](CO)NC(=O)[C@H](CCCC)NC(=O)CNC(=O)[C@H](CCC(=O)O)NC(=O)C(C)(C)NC(=O)C(C)(C)NC(=O)[C@@H](NC(=O)[C@H](CCCCNC(C)=O)NC(=O)[C@H](C)NC(=O)[C@H](CCCNC(=N)N)NC(=O)[C@@H](NC(=O)[C@H](CCCCN)NC(=O)[C@H](CCC(=O)O)NC(=O)[C@H](CCCNC(=N)N)NC(=O)CNC(=O)[C@H](CCC(=O)O)NC(=O)[C@H](CC(C)C)NC(C)=O)C(C)C)[C@@H](C)CC)[C@@H](C)O)C(=O)O)C(=O)O)C(=O)O)C(N)=O)C(=O)O` [compound 139] (Ac-LEGREKVRAK(Ac)I[Aib][Aib]EG[Nle]STFS[αMeK]AAK(Ac)[AEEA][AEEA][AEEA][AEEA][γGlu][γGlu][γGlu]K([γGlu-Palmitoyl])-NH2), the EC50 is 0.3 nM and the Emax stood at 92%. Take `CCCCCCCCCCCCCCCC(=O)N[C@@H](CCC(=O)N[C@@H](CCC(=O)N[C@@H](CCC(=O)N[C@@H](CCC(=O)NCCCC[C@H](NC(=O)CCOCCOCCOCCOCCOCCOCCOCCOCCOCCOCCOCCOCCNC(=O)[C@H](CCCCNC(C)=O)NC(=O)[C@H](CCCCN)NC(=O)[C@H](CCCNC(=N)N)NC(=O)[C@](C)(CCCCN)NC(=O)[C@H](CO)NC(=O)[C@H](Cc1c[nH]c2ccccc12)NC(=O)[C@@H](NC(=O)[C@H](CO)NC(=O)[C@H](CCCC)NC(=O)CNC(=O)[C@H](CCC(=O)O)NC(=O)C(C)(C)NC(=O)C(C)(C)NC(=O)[C@@H](NC(=O)[C@H](CCCCNC(C)=O)NC(=O)[C@H](C)NC(=O)[C@H](CCCNC(=N)N)NC(=O)[C@@H](NC(=O)[C@H](CCCCN)NC(=O)[C@H](CCC(=O)O)NC(=O)[C@H](CCCNC(=N)N)NC(=O)CNC(=O)[C@H](CCC(=O)O)NC(=O)[C@H](CC(C)C)NC(C)=O)C(C)C)[C@@H](C)CC)[C@@H](C)O)C(N)=O)C(=O)O)C(=O)O)C(=O)O)C(=O)O` [compound 43] (Ac-LEGREKVRAK(Ac)I[Aib][Aib]EG[Nle]STWS[αMeK]RKK(Ac)[PEG12]K([γGlu-γGlu-γGlu-γGlu-Palmitoyl])-NH2): the EC50 was determined as 0.14 nM and the maximal response (Emax) was found to be 106%.

As for `CCCCCCCCCCCCCCCC(=O)N[C@@H](CCC(=O)NCCCC[C@H](NC(=O)CC[C@H](NC(=O)CC[C@H](NC(=O)CC[C@H](NC(=O)COCCOCCNC(=O)COCCOCCNC(=O)COCCOCCNC(=O)COCCOCCNC(=O)[C@H](CCCCN)NC(=O)[C@H](CCCCN)NC(=O)[C@H](CCCCN)NC(=O)[C@H](CCCNC(=N)N)NC(=O)C(C)(C)NC(=O)[C@H](CO)NC(=O)[C@H](Cc1c[nH]c2ccccc12)NC(=O)[C@@H](NC(=O)[C@H](CO)NC(=O)[C@H](CCCC)NC(=O)CNC(=O)[C@H](CCC(=O)O)NC(=O)C(C)(C)NC(=O)C(C)(C)NC(=O)[C@@H](NC(=O)[C@H](CCC(N)=O)NC(=O)[C@H](C)NC(=O)[C@H](CCCNC(=N)N)NC(=O)[C@@H](NC(=O)[C@H](CCCCN)NC(=O)[C@H](CCC(=O)O)NC(=O)[C@H](CCCNC(=N)N)NC(=O)CNC(=O)[C@H](CCC(=O)O)NC(=O)[C@H](CC(C)C)NC(C)=O)C(C)C)[C@@H](C)CC)[C@@H](C)O)C(=O)O)C(=O)O)C(=O)O)C(N)=O)C(=O)O` [compound 108] (Ac-LEGREKVRAQI[Aib][Aib]EG[Nle]STWS[Aib]RKKK[AEEA][AEEA][AEEA][AEEA][γGlu][γGlu][γGlu]K([γGlu-Palmitoyl])-NH2), the EC50 came to 0.15 nM and the Emax was 94%.
